Reference: paper PMC3322284 (Journal of Pharmacological and Toxicological Methods, 2012)
Like-named read-outs stand apart in the source and are kept apart here. Non-standard residues stand in square brackets, D forms with d. Residues, ends and D or L forms follow the SMILES beside them. *: point of attachment. Sta = CC(C)C[C@H](N)[C@@H](O)CC(=O)O; Isovaleryl = CC(C)CC(=O)*

How the values were obtained:
[1] = humans; ref Fenner et al., 2009; cited from earlier work
hamster Abcb1a Pgp [2] = target: T1, hamster Abcb1a Pgp (Cricetulus griseus, UniProt P21448); experiment: Fluorosome-trans-pgp
human MDR1 Pgp = human MDR1 Pgp (Homo sapiens, UniProt P08183); experiment: Inhibition of net [3H]digoxin transport in LLC-MDR1 cell monolayers; type: cell-based
hamster Abcb1a Pgp [3] = target: T1, hamster Abcb1a Pgp; experiment: biochemical; type: binding
[4] = IC50,Fl, Table 2, half-maximal concentration for inhibition of transport in Fl-t-pgp
[5] = IC50 Fl-t-pgp, inhibition of S-HR transport, 2 mM ATP, 23°C
[6] = read-out: IC50 Fl-t-pgp, inhibition of S-HR transport, 2 mM ATP, 23°C

T1 sequence (P21448 whole entry): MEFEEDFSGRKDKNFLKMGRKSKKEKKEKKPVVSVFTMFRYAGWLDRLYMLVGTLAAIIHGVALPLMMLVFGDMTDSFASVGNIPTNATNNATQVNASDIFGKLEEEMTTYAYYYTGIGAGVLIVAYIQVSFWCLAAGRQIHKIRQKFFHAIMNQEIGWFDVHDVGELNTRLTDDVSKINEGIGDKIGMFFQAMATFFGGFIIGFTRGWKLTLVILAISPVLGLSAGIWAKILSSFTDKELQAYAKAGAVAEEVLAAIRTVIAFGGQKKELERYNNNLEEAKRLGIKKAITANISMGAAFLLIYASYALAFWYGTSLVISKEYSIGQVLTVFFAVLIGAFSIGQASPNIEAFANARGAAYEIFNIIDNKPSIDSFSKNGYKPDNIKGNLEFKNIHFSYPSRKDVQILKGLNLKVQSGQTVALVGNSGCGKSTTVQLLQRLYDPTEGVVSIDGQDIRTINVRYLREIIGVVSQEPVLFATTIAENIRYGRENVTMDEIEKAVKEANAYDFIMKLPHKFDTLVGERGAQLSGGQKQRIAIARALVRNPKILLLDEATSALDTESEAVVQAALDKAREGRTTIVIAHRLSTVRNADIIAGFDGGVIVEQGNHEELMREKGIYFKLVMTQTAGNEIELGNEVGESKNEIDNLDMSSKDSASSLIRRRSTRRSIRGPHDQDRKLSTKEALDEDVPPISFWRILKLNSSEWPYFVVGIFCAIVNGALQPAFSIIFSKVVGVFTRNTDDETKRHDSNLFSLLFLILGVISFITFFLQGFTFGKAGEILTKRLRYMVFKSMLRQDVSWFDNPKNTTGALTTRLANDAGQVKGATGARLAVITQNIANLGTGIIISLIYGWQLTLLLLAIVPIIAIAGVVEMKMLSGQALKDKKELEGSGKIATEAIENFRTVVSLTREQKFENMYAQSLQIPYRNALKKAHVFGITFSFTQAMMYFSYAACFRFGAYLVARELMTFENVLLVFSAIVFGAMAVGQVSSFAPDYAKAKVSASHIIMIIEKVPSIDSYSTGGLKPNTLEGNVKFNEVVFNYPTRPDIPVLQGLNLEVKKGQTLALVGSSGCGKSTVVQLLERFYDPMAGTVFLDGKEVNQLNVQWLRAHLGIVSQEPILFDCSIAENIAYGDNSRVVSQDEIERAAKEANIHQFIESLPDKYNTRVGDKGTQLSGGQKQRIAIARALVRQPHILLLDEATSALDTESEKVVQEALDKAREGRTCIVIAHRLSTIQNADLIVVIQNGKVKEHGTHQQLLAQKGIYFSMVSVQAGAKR
Chain of human MDR1 Pgp (P08183 whole entry): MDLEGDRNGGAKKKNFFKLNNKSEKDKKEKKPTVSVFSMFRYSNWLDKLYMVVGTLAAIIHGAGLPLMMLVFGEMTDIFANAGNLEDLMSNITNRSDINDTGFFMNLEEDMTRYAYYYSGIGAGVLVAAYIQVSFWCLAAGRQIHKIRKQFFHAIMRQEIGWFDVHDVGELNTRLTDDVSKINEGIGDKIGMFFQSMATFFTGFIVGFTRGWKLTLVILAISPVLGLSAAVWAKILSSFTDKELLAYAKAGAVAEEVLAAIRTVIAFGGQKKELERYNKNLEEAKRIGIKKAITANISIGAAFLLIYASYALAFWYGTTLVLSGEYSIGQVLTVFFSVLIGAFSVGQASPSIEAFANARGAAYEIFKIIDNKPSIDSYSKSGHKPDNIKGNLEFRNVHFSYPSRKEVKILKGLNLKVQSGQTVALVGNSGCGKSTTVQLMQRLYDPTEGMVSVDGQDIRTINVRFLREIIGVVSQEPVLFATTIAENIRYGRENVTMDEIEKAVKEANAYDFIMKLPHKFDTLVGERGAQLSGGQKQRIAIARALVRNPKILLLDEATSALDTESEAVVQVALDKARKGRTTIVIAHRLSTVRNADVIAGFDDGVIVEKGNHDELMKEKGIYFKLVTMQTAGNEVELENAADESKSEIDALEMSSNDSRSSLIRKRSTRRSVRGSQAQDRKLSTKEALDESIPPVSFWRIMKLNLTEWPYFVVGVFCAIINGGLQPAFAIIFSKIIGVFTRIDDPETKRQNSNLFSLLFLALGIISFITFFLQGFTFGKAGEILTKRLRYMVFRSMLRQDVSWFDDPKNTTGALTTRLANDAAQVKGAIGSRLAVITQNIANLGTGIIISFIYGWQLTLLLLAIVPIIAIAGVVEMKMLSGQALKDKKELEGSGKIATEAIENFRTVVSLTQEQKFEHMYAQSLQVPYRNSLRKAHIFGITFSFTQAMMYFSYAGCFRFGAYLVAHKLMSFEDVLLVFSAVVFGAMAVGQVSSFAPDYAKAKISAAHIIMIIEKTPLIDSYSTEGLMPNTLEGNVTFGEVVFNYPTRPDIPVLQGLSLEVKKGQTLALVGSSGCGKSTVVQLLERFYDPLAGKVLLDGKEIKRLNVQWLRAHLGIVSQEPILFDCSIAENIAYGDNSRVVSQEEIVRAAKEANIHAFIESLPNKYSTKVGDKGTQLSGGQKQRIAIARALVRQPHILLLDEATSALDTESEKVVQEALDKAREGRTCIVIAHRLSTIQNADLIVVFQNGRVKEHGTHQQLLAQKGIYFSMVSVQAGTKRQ

## CCCCc1oc2ccccc2c1C(=O)c1cc(I)c(OCCN(CC)CC)c(I)c1 [Amiodarone]
[1]
  [I2] estimated gastrointestinal concentration of drug after oral dose: 4693 µM

## CCc1oc2ccccc2c1C(=O)c1cc(Br)c(O)c(Br)c1 [Benzbromarone]
Hamster Abcb1a Pgp [2]
  IC50: 44 µM

## C[C@H](CS)C(=O)N1CCC[C@H]1C(=O)O [Captopril]
Human MDR1 Pgp
  IC50: > 1000 µM
[1]
  [I2] estimated gastrointestinal concentration of drug after oral dose: 230 µM
  [I] peak plasma concentration of drug at steady state: 0.23 µM

## COc1ccccc1OCCNCC(O)COc1cccc2[nH]c3ccccc3c12 (centres unmarked) [Carvedilol]
Human MDR1 Pgp
  IC50: 32 µM
[1]
  [I2] estimated gastrointestinal concentration of drug after oral dose: 61.5 µM
  [I] peak plasma concentration of drug at steady state: 0.13 µM
Hamster Abcb1a Pgp [2]; [4]
  IC50: 3.8 µM
Hamster Abcb1a Pgp [2]; [5]
  IC50: 3.8 µM

## C[C@]12CC[C@H](O)C[C@H]1CC[C@@H]1[C@@H]2C[C@@H](O)[C@]2(C)[C@@H](C3=CC(=O)OC3)CC[C@]12O [Digoxigenin]
Hamster Abcb1a Pgp [2]
  IC50: 520 µM

## C[C@H]1O[C@@H](O[C@H]2[C@@H](O)C[C@H](O[C@H]3[C@@H](O)C[C@H](O[C@H]4CC[C@@]5(C)[C@H](CC[C@@H]6[C@@H]5C[C@@H](O)[C@]5(C)[C@@H](C7=CC(=O)OC7)CC[C@]65O)C4)O[C@@H]3C)O[C@@H]2C)C[C@H](O)[C@@H]1O [Digoxin]
Hamster Abcb1a Pgp [2]; [5]
  IC50: 80 µM

## COc1ccc([C@@H]2Sc3ccccc3N(CCN(C)C)C(=O)[C@@H]2OC(C)=O)cc1 [Diltiazem]
Hamster Abcb1a Pgp [2]; [4]
  IC50: 24.2 µM
Hamster Abcb1a Pgp [2]; [5]
  IC50: 24 µM

## COc1cc2c(cc1OC)CN(CCc1ccc(NC(=O)c3cccc4c(=O)c5cccc(OC)c5[nH]c34)cc1)CC2 [Elacridar]
Hamster Abcb1a Pgp [2]; [5]
  IC50: 0.1 µM
Hamster Abcb1a Pgp [3]
  Kd: 0.59 µM

## COc1ccc2c(c1)c(CC(=O)O)c(C)n2C(=O)c1ccc(Cl)cc1 [Indomethacin]
Hamster Abcb1a Pgp [2]; [5]
  IC50: 51 µM

## COC(=O)C1=C(C)NC(C)=C(C(=O)OC(C)C)C1c1cccc2nonc12 (centres unmarked) [Isradipine]
Human MDR1 Pgp
  IC50: 29 µM
[1]
  [I2] estimated gastrointestinal concentration of drug after oral dose: 161.5 µM
  [I] peak plasma concentration of drug at steady state: 0.02 µM
Hamster Abcb1a Pgp [2]; [4]
  IC50: 6.6 µM
Hamster Abcb1a Pgp [2]; [5]
  IC50: 6.6 µM

## COc1ccc2c3c([nH]c2c1)[C@H](CC(C)C)N1C(=O)[C@H](CCC(=O)OC(C)(C)C)NC(=O)[C@@H]1C3 [Ko143]
Hamster Abcb1a Pgp [2]; [6]
  IC50: 7.5 µM

## COCC(=O)O[C@]1(CCN(C)CCCc2nc3ccccc3[nH]2)CCc2cc(F)ccc2[C@@H]1C(C)C [Mibefradil]
[1]
  [I2] estimated gastrointestinal concentration of drug after oral dose: 1211 µM
  [I] peak plasma concentration of drug at steady state: 2.42 µM
Hamster Abcb1a Pgp [2]; [4]
  IC50: 7.1 µM
Hamster Abcb1a Pgp [2]; [5]
  IC50: 7.1 µM

## CC(=O)NC(CC(C)C)C(=O)NC(CC(C)C)C(=O)NC(Cc1ccc(O)cc1)C(N)=O (stereo not drawn) [NAc-LLY-amide] (Ac-Leu-Leu-Tyr-NH2; configuration not given here)
Hamster Abcb1a Pgp [2]; [6]
  IC50: 13 µM

## C=CCN1CC[C@]23c4c5ccc(O)c4O[C@H]2C(=O)CC[C@@]3(O)[C@H]1C5 [Naloxone]
Hamster Abcb1a Pgp [2]
  IC50: 210 µM

## Cc1c(O)cccc1C(=O)N[C@@H](CSc1ccccc1)[C@H](O)CN1C[C@H]2CCCC[C@H]2C[C@H]1C(=O)NC(C)(C)C [Nelfinavir]
Hamster Abcb1a Pgp [2]; [5]
  IC50: 0.59 µM
Hamster Abcb1a Pgp [3]
  Kd: 0.98 µM

## COC(=O)C1=C(C)NC(C)=C(C(=O)OCCN(C)Cc2ccccc2)C1c1cccc([N+](=O)[O-])c1 (centres unmarked) [Nicardipine]
[1]
  [I2] estimated gastrointestinal concentration of drug after oral dose: 248 µM
  [I] peak plasma concentration of drug at steady state: 0.18 µM
Hamster Abcb1a Pgp [2]; [4]
  IC50: 0.93 µM
Hamster Abcb1a Pgp [2]; [5]
  IC50: 0.93 µM
Hamster Abcb1a Pgp [3]
  Kd: 6.5 µM

## CCOC(=O)C1=C(C)NC(C)=C(C(=O)OC)C1c1cccc([N+](=O)[O-])c1 (centres unmarked) [Nitrendipine]
[1]
  [I2] estimated gastrointestinal concentration of drug after oral dose: 222.0 µM
  [I] peak plasma concentration of drug at steady state: 0.03 µM
Hamster Abcb1a Pgp [2]; [4]
  IC50: 5.8 µM
Hamster Abcb1a Pgp [2]; [5]
  IC50: 5.8 µM

## CC(=O)O[C@H]1C(=O)[C@@]2(C)[C@H]([C@H](OC(=O)c3ccccc3)[C@]3(O)C[C@H](OC(=O)[C@H](O)[C@@H](NC(=O)c4ccccc4)c4ccccc4)C(C)=C1C3(C)C)[C@]1(OC(C)=O)CO[C@@H]1C[C@@H]2O [Paclitaxel]
Hamster Abcb1a Pgp [2]; [5]
  IC50: 1.2 µM
Hamster Abcb1a Pgp [3]
  Kd: 0.038 µM

## CC(C)CC(=O)N[C@H](C(=O)N[C@H](C(=O)N[C@@H](CC(C)C)[C@@H](O)CC(=O)N[C@@H](C)C(=O)N[C@@H](CC(C)C)[C@@H](O)CC(=O)O)C(C)C)C(C)C [Pepstatin A] (Isovaleryl-VV[Sta]A[Sta]-OH)
Hamster Abcb1a Pgp [2]; [5]
  IC50: 29 µM

## CCCN(CCC)S(=O)(=O)c1ccc(C(=O)O)cc1 [Probenecid]
Hamster Abcb1a Pgp [2]; [5]
  IC50: 240 µM

## CC(=O)[C@H]1CC[C@H]2[C@@H]3CCC4=CC(=O)CC[C@]4(C)[C@H]3CC[C@]12C [Progesterone]
Hamster Abcb1a Pgp [2]; [5]
  IC50: 3.7 µM

## COc1ccccc1OCC(O)CN1CCN(CC(=O)Nc2c(C)cccc2C)CC1 (centres unmarked) [Ranolazine]
Human MDR1 Pgp
  IC50: 130 µM
[1]
  [I2] estimated gastrointestinal concentration of drug after oral dose: 9356 µM
  [I] peak plasma concentration of drug at steady state: 8.4 µM
Hamster Abcb1a Pgp [2]; [4]
  IC50: 64.1 µM
Hamster Abcb1a Pgp [2]; [5]
  IC50: 64 µM

## COC(=O)[C@H]1[C@H]2C[C@@H]3c4[nH]c5cc(OC)ccc5c4CCN3C[C@H]2C[C@@H](OC(=O)c2cc(OC)c(OC)c(OC)c2)[C@@H]1OC [Reserpine]
Hamster Abcb1a Pgp [2]; [5]
  IC50: 0.31 µM
Hamster Abcb1a Pgp [3]
  Kd: 0.73 µM

## CN[C@H]1CC[C@@H](c2ccc(Cl)c(Cl)c2)c2ccccc21 [Sertraline]
[1]
  [I2] estimated gastrointestinal concentration of drug after oral dose: 2612 µM
  [I] peak plasma concentration of drug at steady state: 0.39 µM
Hamster Abcb1a Pgp [2]; [4]
  IC50: 29 µM
Hamster Abcb1a Pgp [2]; [5]
  IC50: 29 µM

## COc1cc2c(cc1OC)CN(CCc1ccc(NC(=O)c3cc(OC)c(OC)cc3NC(=O)c3cnc4ccccc4c3)cc1)CC2 [Tariquidar]
Hamster Abcb1a Pgp [2]
  IC50: 0.021 µM

## CCCc1nc2c(C)cc(-c3nc4ccccc4n3C)cc2n1Cc1ccc(-c2ccccc2C(=O)O)cc1 [Telmisartan]
Human MDR1 Pgp
  IC50: 17 µM
[1]
  [I2] estimated gastrointestinal concentration of drug after oral dose: 933 µM
  [I] peak plasma concentration of drug at steady state: 1.11 µM
Hamster Abcb1a Pgp [2]; [4]
  IC50: 0.12 µM
Hamster Abcb1a Pgp [2]; [5]
  IC50: 0.12 µM

## Cc1c(C)c2c(c(C)c1O)CCC(C)(COc1ccc(CC3SC(=O)NC3=O)cc1)O2 (centres unmarked) [Troglitazone]
Human MDR1 Pgp
  IC50: 12 µM
[1]
  [I2] estimated gastrointestinal concentration of drug after oral dose: 3264 µM
  [I] peak plasma concentration of drug at steady state: 3.62 µM
Hamster Abcb1a Pgp [2]; [4]
  IC50: 5.2 µM
Hamster Abcb1a Pgp [2]; [5]
  IC50: 5.2 µM

## C/C=C/C[C@@H](C)C(=O)[C@H]1C(=O)N[C@@H](C(C)C)C(=O)N(C)CC(=O)N(C)[C@@H](CC(C)C)C(=O)N[C@@H](C(C)C)C(=O)N(C)[C@@H](CC(C)C)C(=O)N[C@@H](C)C(=O)N[C@H](C)C(=O)N(C)[C@@H](CC(C)C)C(=O)N(C)[C@@H](CC(C)C)C(=O)N(C)[C@@H](C(C)C)C(=O)N1C [Valspodar]
Hamster Abcb1a Pgp [2]; [5]
  IC50: 0.25 µM
Hamster Abcb1a Pgp [3]
  Kd: 0.08 µM

## O[C@@H](COc1cccc2ncccc12)CN1CCN([C@@H]2c3ccccc3[C@@H]3[C@H](c4ccccc42)C3(F)F)CC1 [Zosuquidar]
Hamster Abcb1a Pgp [2]; [6]
  IC50: 0.59 µM
Hamster Abcb1a Pgp [3]; fluorescence quenching of purified Pgp in 2 mM CHAPS
  Kd: 0.055 µM
